Here are results for four molecules from ChEMBL document CHEMBL1133264, “Development of peptidyl alpha-keto-beta-aldehydes as new inhibitors of cathepsin L--comparisons of potency and selectivity profiles with cathepsin B” (Bioorg Med Chem Lett, 2000).

One assay has as its target Cathepsin B (Bos taurus, UniProt P07688). Put plainly: Ability to block cathepsin B-catalyzed hydrolysis of the fluorogenic substrate Z-Arg-Arg-NHMec.
The target in assay [1] is T1, Procathepsin L (Homo sapiens, UniProt P07711). Description: Ability to block cathepsin L-catalyzed hydrolysis of the fluorogenic substrate Z-Phe-Arg-NHMec.
T1 sequence (P07711 whole entry): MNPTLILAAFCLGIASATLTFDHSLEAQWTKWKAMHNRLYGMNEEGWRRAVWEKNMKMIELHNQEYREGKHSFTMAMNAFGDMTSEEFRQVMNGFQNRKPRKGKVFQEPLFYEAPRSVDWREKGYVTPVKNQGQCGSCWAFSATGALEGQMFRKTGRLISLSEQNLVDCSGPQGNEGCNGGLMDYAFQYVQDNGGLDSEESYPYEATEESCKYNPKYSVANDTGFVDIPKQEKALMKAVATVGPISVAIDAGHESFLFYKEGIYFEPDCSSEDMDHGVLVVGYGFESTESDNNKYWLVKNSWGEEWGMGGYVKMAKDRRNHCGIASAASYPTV
In assay [2] the target is T1, Procathepsin L. Description: Ability to block cathepsin L-catalyzed hydrolysis of the fluorogenic substrate Z-Phe-Arg-NHMec, at 100 uM conc.; no inhibition.

On to `CCCCOc1ccc(C[C@H](NC(=O)[C@H](Cc2ccccc2)NC(=O)OCc2ccccc2)C(=O)C=O)cc1`, for which the values for the inhibition constant (Ki) on Cathepsin B and on Procathepsin L [1] were 214 nM and 0.6 nM, respectively.
With `N=C(N)NCCC[C@H](NC(=O)[C@H](Cc1ccccc1)C(=O)OCc1ccccc1)C(=O)C=O`, the values for the Ki at Cathepsin B and at Procathepsin L [1] were 40 nM and 90 nM, respectively.
`CC(=O)N[C@@H](CCCN=C(N)N)C(=O)N[C@@H](CCCN=C(N)N)C(=O)C=O`: the Ki is 640 nM at Cathepsin B and “Not Active” at Procathepsin L [2].
In the case of `CC(=O)N[C@@H](CC(C)C)C(=O)N[C@@H](CC(C)C)C(=O)N[C@@H](CCCN=C(N)N)C(=O)C=O`, the inhibition constant (Ki) on Cathepsin B amounted to 1250 nM; at Procathepsin L [1], 970 nM.

As usually defined, the Ki is the equilibrium dissociation constant of an inhibitor or competing ligand from its target.
